According to EP1330253B1, “USE OF BIOACTIVE FRACTION FROM COW URINE DISTILLATE ('GO MUTRA') AS A BIO-ENHANCER OF ANTI-INFECTIVE, ANTI-CANCER AGENTS AND NUTRIENTS” (Council of Scientific and Industrial Research, priority 2000, dated 2002):
Like-named read-outs stand apart in the source and are kept apart here.

Assays:
MCF-7 = experiment: Bio-enhancement of anti-cancer agents, viable cell count; format: cell-based; conditions: distillate at 1 µl/ml
Experimental: • a) MCF-7 (Breast cancer commercial cell line obtained from National Center for Cell Sciences (NCCS), Pune) is inoculated at a density of about 0.1 X 10^6 cells in MEM medium in the wells of 24 well plate. • b) This is replaced with fresh medium after 18 hours in each well. • c) The test component (s) is added at desired concentrations in different wells just after the medium replacement. • d) Observations are recorded on the cell count after 36 hours for which the allowing steps are required. • i. The medium is removed from the wells. • ii. The wells are rinsed with 1ml PBS (Phosphate buffer saline). • iii. To each well 500 µl of freshly prepared trypsin (0.1% in PBS) solution is added. • iv. Trypsin solution is removed after 30 seconds and the plate is gently tapped till the cells are released from the plate surface. • v. Fresh 1 ml of MEM growth medium is added and agitated with a pipette to obtain a cell suspension. • vi. 10 µl of cell suspension is taken on the haemocytometer and a cover glass is placed over the counting chamber. • vii. The number of viable cells is counted in 5 big squares and the readings are taken from 5 microscopic fields to determine the average. • viii. The cell count (titer per ml) in the original sample is then calculated as average count X 10^3.

[1] = Bioenhancement of antifungal agent, minimum inhibitory concentration; format: cell-based; conditions: active fraction Gm-IV kept at 10 µg/ml in the combination
[2] = for OD measured as Absorbance (specific to the compound maxima) across the membrane in receiving tube after 1 hr / OD measured as Absorbance (specific to the compound maxima) across the membrane in receiving tube after 2 hr / OD measured as Absorbance (specific to the compound maxima) across the membrane in receiving tube after 3 hr / OD measured as Absorbance (specific to the compound maxima) across the membrane in receiving tube after 4hr / OD measured as Absorbance (specific to the compound maxima) across the membrane in receiving tube after 5 hr / OD measured as Absorbance (specific to the compound maxima) across the membrane in receiving tube after 6 hr: Rifampicin 1mg/ml, fraction Gm-IV 1.0µg/ml
Mycobacterium smegmatis = experiment: Bio-enhancement of anti-infective agents, broth assay with viable cell count; format: cell-based; conditions: for Fold enhancement in antibiotic activity: cow urine distillate 1 µl/ml
Experimental: (§1) • a) The minimum inhibitory concentration (MIC) of antibiotic is determined against Escherichia coli (equivalent of ATCC 10536), Bacillus subtilis (equivalent of ATCC 6015) and Mycobacterium smegmatis (equivalent of ATCC 10231) in broth and disc diffusion assay. • b) The antibiotics agents at concentrations 1/4, 1/3, 1/2 and equal to MIC are added alone and in combination with the test compound at varying concentrations on disc and in broth to evaluate the comparative inhibition. • c) These combination showing significant advantage or higher activity than antibiotic alone in terms of enhanced inhibition of bacterial growth (large inhibition zone in disc diffusion and affectivity of lower concentration in broth assay) are picked up for future testing. • d) In broth assay the activity is quantified by counting number of viable cells in a given treatment and converted in fold enhancement by combination compared to antibiotic / drug alone in the killing percentage of cells. • e) The pre-treatment assay followed to determine whether the compound is required along with antibiotic to enhance its activity or even its withdrawal after treatment or prior to antibiotic treatment would benefit. For this, the cells are treated with compound for 4 to 8 hours and then washed free of it by centrifugation and washing in sterile water. This was followed by treatment with antibiotic as in steps b to d.
(§2) In the next step of elucidation of the enhancer action, the applicants experimented with the killing activities of different antibiotics against the bacteria singly and in combination with the test component (cow urine distillate) following the method described above. These experiments are being described in the following examples. […] In all the experiments the cow urine distillate concentration was kept at 1 µl/ml, unless it is specifically mentioned.

Bacillus subtilis = experiment: as above; format: cell-based; conditions: for Fold enhancement in antibiotic activity: cow urine distillate 1 µl/ml
Experimental: as §1, §2

Escherichia coli = experiment: as above; format: cell-based; conditions: for Fold enhancement in antibiotic activity: cow urine distillate 1 µl/ml
Experimental: as §1, §2

[3] = system: oxyR mutant of bacterium Escherichia coli; format: cell-based; conditions: for Fold enhancement in isoniazid/H2O2 activity: cow urine distillate 0.001 µl/ml
Experimental: For this, the cells are treated with compound for 4 to 8 hours and then washed free of it by centrifugation and washing in sterile water. This was followed by treatment with antibiotic as in steps b to d.

[4] = antibiotic 0.05 µg/ml + cow urine distillate 1 µl/ml
[5] = antibiotic 0.1 µg/ml + cow urine distillate 1 µl/ml
[6] = antibiotic 0.5 µg/ml + cow urine distillate 1 µl/ml

Structure (SMILES): CC(=O)O[C@H]1C(=O)[C@@]2(C)[C@H]([C@H](OC(=O)c3ccccc3)[C@]3(O)C[C@H](OC(=O)[C@H](O)[C@@H](NC(=O)c4ccccc4)c4ccccc4)C(C)=C1C3(C)C)[C@]1(OC(C)=O)CO[C@@H]1C[C@@H]2O [Taxol, Paclitaxel]
- enhancement in the activity of taxol (MCF-7): at least 5 folds

Structure (SMILES): Clc1ccccc1C(c1ccccc1)(c1ccccc1)n1ccnc1 [Clotrimazol]
- Fold enhancement [1]: 0.0
- Minimum inhibitory Concentration (MIC) [1]: 4.40 mg/L

Structure (SMILES): CO[C@H]1/C=C/O[C@@]2(C)Oc3c(C)c(O)c4c(O)c(c(/C=N/N5CCN(C)CC5)c(O)c4c3C2=O)NC(=O)/C(C)=C\C=C\[C@H](C)[C@H](O)[C@@H](C)[C@@H](O)[C@@H](C)[C@H](OC(C)=O)[C@@H]1C [Rifampicin]
- OD measured as Absorbance (specific to the compound maxima) across the membrane in receiving tube after 1 hr ([2]; A340): 0.0097
- OD measured as Absorbance (specific to the compound maxima) across the membrane in receiving tube after 2 hr ([2]; A340): 0.0214
- OD measured as Absorbance (specific to the compound maxima) across the membrane in receiving tube after 3 hr ([2]; A340): 0.0334
- OD measured as Absorbance (specific to the compound maxima) across the membrane in receiving tube after 4hr ([2]; A340): 0.0771
- OD measured as Absorbance (specific to the compound maxima) across the membrane in receiving tube after 5 hr ([2]; A340): 0.0858
- OD measured as Absorbance (specific to the compound maxima) across the membrane in receiving tube after 6 hr ([2]; A340): 0.0910
- OD measured as Absorbance (specific to the compound maxima) across the membrane in receiving tube after 1 hr ([2]; A475): 0.0177
- OD measured as Absorbance (specific to the compound maxima) across the membrane in receiving tube after 2 hr ([2]; A475): 0.0284
- OD measured as Absorbance (specific to the compound maxima) across the membrane in receiving tube after 3 hr ([2]; A475): 0.0309
- OD measured as Absorbance (specific to the compound maxima) across the membrane in receiving tube after 4hr ([2]; A475): 0.0412
- OD measured as Absorbance (specific to the compound maxima) across the membrane in receiving tube after 5 hr ([2]; A475): 0.0484
- OD measured as Absorbance (specific to the compound maxima) across the membrane in receiving tube after 6 hr ([2]; A475): 0.0496
- enhancement of bioavailability across the mammalian gut membrane ([2]; with the sample, goat intestine, within 2 hours, keeps increasing upto 4 hours): enhancement of bioavailability
- Survival fraction of viable cells upon treatment with antibiotic alone (Mycobacterium smegmatis; antibiotic 0.05 µg/ml): 0.008
- Survival fraction of viable cells upon treatment with antibiotic + cow urine distillate combination (Mycobacterium smegmatis; [4]): 0.0001
- Fold enhancement in antibiotic activity (Mycobacterium smegmatis; antibiotic 0.05 µg/ml): 80
- Survival fraction of viable cells upon treatment with antibiotic alone (Mycobacterium smegmatis; antibiotic 0.1 µg/ml): 0.006
- Survival fraction of viable cells upon treatment with antibiotic + cow urine distillate combination (Mycobacterium smegmatis; [5]): 0.0036
- Fold enhancement in antibiotic activity (Mycobacterium smegmatis; antibiotic 0.1 µg/ml): 1.5
- Survival fraction of viable cells upon treatment with antibiotic alone (Bacillus subtilis; antibiotic 0.005 µg/ml): 1.1
- Survival fraction of viable cells upon treatment with antibiotic + cow urine distillate combination (Bacillus subtilis; antibiotic 0.005 µg/ml + cow urine distillate 1 µl/ml): 0.28
- Fold enhancement in antibiotic activity (Bacillus subtilis; antibiotic 0.005 µg/ml): 5.5
- Survival fraction of viable cells upon treatment with antibiotic alone (Bacillus subtilis; antibiotic 0.05 µg/ml): 0.03
- Survival fraction of viable cells upon treatment with antibiotic + cow urine distillate combination (Bacillus subtilis; [4]): 0.01
- Fold enhancement in antibiotic activity (Bacillus subtilis; antibiotic 0.05 µg/ml): 3.0
- Survival fraction of viable cells upon treatment with antibiotic alone (Escherichia coli; antibiotic 10 µg/ml): 0.86
- Survival fraction of viable cells upon treatment with amlibiotic + cow urine distillate combination (Escherichia coli; antibiotic 10 µg/ml + cow urine distillate 1 µl/ml): 0.17
- Fold enhancement in antibiotic activity (Escherichia coli; antibiotic 10 µg/ml): 5.0
- Survival fraction of viable cells upon treatment with antibiotic alone (Escherichia coli; antibiotic 30 µg/ml): 0.05
- Survival fraction of viable cells upon treatment with amlibiotic + cow urine distillate combination (Escherichia coli; antibiotic 30 µg/ml + cow urine distillate 1 µl/ml): 0.007
- Fold enhancement in antibiotic activity (Escherichia coli; antibiotic 30 µg/ml): 7.1

Structure (SMILES): CC1(C)S[C@@H]2[C@H](NC(=O)[C@H](N)c3ccccc3)C(=O)N2[C@H]1C(=O)O [Ampicillin]
- Survival fraction of viable cells upon treatment with antibiotic alone (Mycobacterium smegmatis; antibiotic 0.5 µg/ml): 0.07
- Survival fraction of viable cells upon treatment with antibiotic + cow urine distillate combination (Mycobacterium smegmatis; [6]): 0.006
- Fold enhancement in antibiotic activity (Mycobacterium smegmatis; antibiotic 0.5 µg/ml): 11.6
- Survival fraction of viable cells upon treatment with antibiotic alone (Bacillus subtilis; antibiotic 0.1 µg/ml): 1.00
- Survival fraction of viable cells upon treatment with antibiotic + cow urine distillate combination (Bacillus subtilis; [5]): 0.3
- Fold enhancement in antibiotic activity (Bacillus subtilis; antibiotic 0.1 µg/ml): 3.3
- Survival fraction of viable cells upon treatment with antibiotic alone (Bacillus subtilis; antibiotic 0.5 µg/ml): 0.18
- Survival fraction of viable cells upon treatment with antibiotic + cow urine distillate combination (Bacillus subtilis; [6]): 0.06
- Fold enhancement in antibiotic activity (Bacillus subtilis; antibiotic 0.5 µg/ml): 3.0
- Survival fraction of viable cells upon treatment with antibiotic alone (Escherichia coli; antibiotic 4 µg/ml): 1.11
- Survival fraction of viable cells upon treatment with amlibiotic + cow urine distillate combination (Escherichia coli; antibiotic 4 µg/ml + cow urine distillate 1 µl/ml): 0.60
- Fold enhancement in antibiotic activity (Escherichia coli; antibiotic 4 µg/ml): 1.85
- Survival fraction of viable cells upon treatment with antibiotic alone (Escherichia coli; antibiotic 6 µg/ml): 0.09
- Survival fraction of viable cells upon treatment with amlibiotic + cow urine distillate combination (Escherichia coli; antibiotic 6 µg/ml + cow urine distillate 1 µl/ml): 0.02
- Fold enhancement in antibiotic activity (Escherichia coli; antibiotic 6 µg/ml): 4.50
- Survival fraction of viable cells upon treatment with antibiotic alone (Escherichia coli; antibiotic 8 µg/ml): 0.05
- Survival fraction of viable cells upon treatment with amlibiotic + cow urine distillate combination (Escherichia coli; antibiotic 8 µg/ml + cow urine distillate 1 µl/ml): 0.01
- Fold enhancement in antibiotic activity (Escherichia coli; antibiotic 8 µg/ml): 5.00

Structure (SMILES): NNC(=O)c1ccncc1 [Isoniazid]
- Viable cell count ([3]; 250µg/ml): 7.5 x10^7
- Viable cell count ([3]; 250µg/ml + cow urine distillate 0.001 µl/ml): 0.99 x10^7
- Fold enhancement in isoniazid/H2O2 activity ([3]; 250µg/ml): 7.5
- enhancement action for INH ([3]; distillate at 10-50 thousand-fold dilution in the final volume of culture, organism not stated): showed enhancement action

Structure (SMILES): OO [Hydrogen peroxide (H2O2), Hydrogen peroxide]
- Viable cell count ([3]; 0.003 %v/v): 7.14 x10^7
- Viable cell count ([3]; 0.003 %v/v + cow urine distillate 0.001 µl/ml): 1.2 x10^7
- Fold enhancement in isoniazid/H2O2 activity ([3]; 0.003 %v/v): 5.9
